Data taken from patent US7527971B2, “Adult stem cell lines” (Vitro Diagnostics, Inc., priority 2004, dated 2009).
Ends that are not written are not given here.

Experiments:
[1] = test system: VIT4-G9 cells; test: Effect of nicotinamide on prevalence of ILCC in VIT4-G9 cultures; assay type: cell-based, human; settings: 10 mM nicotinamide
Excerpt: A general principle of developmental cell biology is that cellular differentiation and growth are at least partially exclusive of each other. High rates of cellular proliferation usually occur in the absence of differentiation, while differentiation usually requires quiescence or low rates of cell proliferation. Initial observations of the clonal cell line VIT4-G9 were consistent with this concept since pancreatic hormone-containing ILCC only appeared at later stages of culture following slower cell growth as a consequence of confluence and possibly contact inhibition.

[2] = test system: VIT4-G9 cells; test: Insulin secretion from VIT4-G9 cultures after growth/differentiation conditions; assay type: cell-based, human
Protocol: ILCC were examined to determine the level of insulin content and its secretion by use an immunoassay specific to human insulin (Linco Research, Catalog Number EZHI-14K). Since the growth medium contains recombinant human insulin, tissues were extensively washed with PBS prior to determination of secretion. ILCC were acutely maintained in a physiological saline solution (140 mM NaCl, 5 mM KCl, 5 mM CaCl2, 0.5% BSA, 1 mM sodium pyruvate, 2 mM glucose, and 10 mM HEPES, pH 7.4). […] The control solution contained 2 mM glucose, the elevated glucose solution was identical but contained 20 mM glucose, and the elevated K^+ solution contained 50 mM K^+, while the other constituents were identical to the control solution. The physiological saline solution was collected following centrifugation (10 minutes at 470×g) and frozen at −20° C. for later analysis. The remaining ILCC were lyzed in 10 mM Tris, 1 mM EDTA and 10% glycerol; the pellet was extracted overnight at 4° C. in 70% ethanol, 0.18 mM HCl and the extract was dried using Model DNA 110 Speed Vac (Savant, Inc.). The dried extract was reconstituted in 100 μl PBS prior to assay for insulin content. […] For example, glucose-stimulated insulin secretion requires expression of functional glucose transporter protein and glucokinase in addition to insulin. […]

[3] = test system: VIT1 cells; test: IHC analysis of insulin or Ep-CAM positive cells in VIT1 culture exposed to nicotinamide; assay type: cell-based, human; settings: 10 mM nicotinamide, 5-day exposure
[4] = test system: VIT1 cells; test: Induction of ILCC, insulin and Ep-CAM in VIT1 cells by GLP-1 (IHC); assay type: cell-based, human
Protocol: VIT1 cells were cultured and expanded through multiple passages as described in Example 2, “Cell Growth Analysis”. The culture medium used for expansion was VitroPlus II, (Vitro Diagnostics, Inc, Catalog Number VC03014) containing 10 nM GLP-1 (1-37) (Bachem, Catalog Number H-5552). Different cultures were expanded for 11 to 20 days encompassing two to five passages prior to immunohistochemical determination of insulin or Ep-CAM. A negative control culture that was expanded in VitroPlus II without added GLP-1 through 6 passages (24 days) prior to IHC determination of insulin. Insulin and Ep-CAM presence within these cultures was determined by fixation of the cultured cells in 1% glutaraldehyde, overnight incubation with insulin MAB (Sigma Chemical Co, Catalog Number I2018) at 1/1000 dilution in PBS or Ep-CAM, (Epithelial Specific Antigen) MAB (Biogenesis, Catalog Number 4240-4009) at 1/200 dilution in PBS followed by washout and incubation with an HRP-conjugated secondary antibody (Goat-anti-mouse-HRP (Jackson ImmunoResearch Laboratories, Inc., Catalog Number 115-035-062) at 37° C. for 30 minutes. Following washout of the secondary antibody, the fixed cells were then incubated for 15 minutes in diaminobenzidine (Sigma Chemical Co, Catalog Number D-4293), and the stained cultures were examined by phase-contrast microscopy and photographed. […]

[5] = test system: primary cultures of dispersed human pancreatic cells; test: Effect of HGF on ILCC growth and morphology in primary cultures; assay type: cell-based
Protocol: The effects of hepatocyte growth factor (HGF; PeproTech, Inc. Catalog Number 100-39) were determined by addition to the growth medium described above at a final concentration of 30 ng/ml. […] The acute effects of HGF on ILCC growth and morphology were determined and longer-term experiments were conducted as follows. The sample consisted of a cryopreserved, non-settled fraction of cells resulting from sub-culture of ILCC from the first passage of the culture of human pancreatic dispersed cells prepared as described above. The frozen cells were rapidly thawed, cryopreservative was washed out and the cells were plated at 10,000/cm^2 during the second passage. Cultures were exposed to 30 ng/ml HGF or control medium without added HGF and the cultures were expanded through 4 passages. Thereafter, both the control and HGF cultures were maintained and expanded through 8 passages using growth medium without added HGF. The number of ILCC in these cultures was determined by microscopic inspection.
To determine if ILCC cultures were affected by environmental conditions, the effect of HGF exposure was determined as described above (See: Methods). HGF is known to be mitogenic to beta cells, increases beta cell mass and total insulin production in vivo (Gracia-Ocana, et. al, 2000). HGF is also a known survival factor for a variety of cells (Dai, et. al, 2003). […]

Compound: NC(=O)c1cccnc1 [nicotinamide]
- Increase in prevalence of ILCC [1]: about 5 fold
- Glucose-stimulated insulin secretion: requirement in differentiation phase ([2]; 10 mM nicotinamide in 0.5% FBS VitroPlus II, 6 days): necessary
- Number of insulin or Ep-CAM positive cells by IHC [3]: did not appear to change

Compound: glucagon-like peptide 1 (HAEGTFTSDVSSYLEGQAAKEFIAWLVKGR; ends and bridges not checked; UniProt P01275 98-127, looked up) [GLP-1, GLP-1 (1-37) (Bachem, Catalog Number H-5552)]
- Glucose-stimulated insulin secretion: requirement during growth phase ([2]; GLP-1 in VitroPlus II, 5 days): necessary
- Ep-CAM expression by IHC ([4]; 10 nM GLP-1): induced
- Reduction of ILCC frequency in negative control culture lacking GLP-1 ([4]; 10 nM GLP-1 in VitroPlus II versus no GLP-1): thousand-fold

Compound: hepatocyte growth factor [HGF]
- Increase in number of ILCC ([5]; 30 ng/ml HGF during passages 2 through 4, counted at early pass 7): ~5 fold
- Morphology of ILCC ([5]; 30 ng/ml HGF, short time of exposure, reversed when HGF removed): shift in the morphology of ILCC from larger islets containing small cells to more loosely attached, smaller islets composed of larger cells
